Results: paper PMC3714282, “Pharmacometabolomics of Response to Sertraline and to Placebo in Major Depressive Disorder – Possible Role for Methoxyindole Pathway” (PLoS ONE, 2013)

Tested on: serum metabolites (tryptophan, tyrosine, purine pathways, antioxidants)
Test: LCECA metabolomic profiling of serum: change from baseline at week 1 and week 4 (all, responders, non-responders)
Assay type: in vivo, human
Details: serum; for Change 5-HT / Change 5-HTP / Change 5-MTPOL / Change 7-MXAN / Change ATOCO / Change CYS / Change DIOHMAL / Change DOPAC / Change DTOCO / Change GR / Change GRMP / Change GSH / Change HGA / Change HVA / Change HX / Change KYN / Change LD / Change MEL / Change METH / Change MHPG / Change NA-5-HT / Change TRP / Change TRPOL / Change TYR / Change UA / Change VMA / Change XAN / Change XANTH / Change 3-OHKY / Change 3-OMD / Change 4-HBAC / Change 4-HPAC / Change 4-HPLA / Change 5-HIAA: log-transformed concentration; for Change in ratio 3-OHKY/5-HT, Estimate / Change in ratio 3-OHKY/5-HTP, Estimate / Change in ratio 3-OHKY/5-MTPOL, Estimate / Change in ratio 3-OHKY/MEL, Estimate / Change in ratio 3-OHKY/NA-5-HT, Estimate / Change in ratio 3-OHKY/TRP, Estimate / Change in ratio KYN/5-HT, Estimate / Change in ratio KYN/5-HTP, Estimate / Change in ratio KYN/5-MTPOL, Estimate / Change in ratio KYN/MEL, Estimate / Change in ratio KYN/NA-5-HT, Estimate / Change in ratio KYN/TRP, Estimate: pre- to post-treatment (four weeks)
Excerpt: Study participants were outpatients, 18–65 years of age, from various clinical sites across the United States. […] A complete description of the inclusion and exclusion used in this study can be found in Table S1. The study protocol was developed in accordance with the principles of the Declaration of Helsinki. All patients provided written informed consent. The study was sponsored and monitored by Pfizer, Inc. Each site's institutional review board approved and oversaw the study. The primary outcome measure was the HAMD17, used to assess depressive symptom severity. Measures were gathered at baseline, and weeks 1 and 4 of treatment at the patient's visits. Serum samples were collected using standard protocol at baseline, week 1 and week 4 of treatment at the clinic visits. Whole blood was collected in serum collection tubes and inverted 5–8 times. Serum samples were allowed to clot at room temperature for 60 minutes and then centrifuged at 1,300×g for 15 minutes. Following centrifugation supernatant was frozen at −80°C until analysis.
Samples were analyzed using a liquid chromatography electrochemical array (LCECA) platform that has been extensively validated and used in our prior studies in neurodegenerative and psychiatric disorders [30]–[34]. The method includes multiple compounds from the tyrosine, tryptophan, sulfur amino acids and purine pathways, and markers of oxidative stress and protection (for the list of metabolites and abbreviations see Table 1). Levels of 5-Methoxytryptamine (5-MTPM) were measured using a gas chromatography time-of-flight-mass spectrometry (GCTOF-MS) platform. Samples were prepared for analysis as previously described. During the sample preparation, pools were created from equal volumes of subaliquots of all samples. Concentrations of metabolites in the individual samples were expressed as a percentage of the concentration of those metabolites in the averaged pool.
Data preprocessing: We first removed the metabolites that have more than 40% missing values. […] Principal components analysis (PCA; SIMCA-P+12.0) was used to identify outliers. The analysis was performed for each time point. […] Subjects with ≥3 standard deviations away from the center of data cloud within two principal components (PC's) scores scatter plot were considered outliers and were removed from further analysis.
These analyses were conducted separately for the sertraline and placebo groups. Between groups t-tests were used to compare baseline to one week and baseline to four week change scores between the sertraline and placebo groups.
Signatures of response to sertraline and placebo were identified by using paired t-tests to compare week 4 metabolite levels to baseline metabolite levels in the responders and non-responders to therapy. […] These analyses were also performed to evaluate changes in ratios of individual metabolites within (e.g., 5-HT/5-HTP) and between branches of tryptophan pathway (e.g., KYN/MEL).

[1] = after four weeks, sertraline group
[2] = after one week, responders to sertraline
[3] = after one week, sertraline group

Structure (SMILES): CN[C@H]1CC[C@@H](c2ccc(Cl)c(Cl)c2)c2ccccc21 [Sertraline, sertraline]
- Change 5-HT [1]: −1.9
- Change 5-HTP [1]: 0.12
- Change 5-MTPOL [1]: 0.13
- Change 7-MXAN [1]: 0.083
- Change ATOCO [1]: 0.63
- Change CYS [1]: −0.0014
- Change DIOHMAL [1]: 0.37
- Change DOPAC [1]: −0.014
- Change DTOCO [1]: 0.71
- Change GR [1]: 0.0002
- Change GRMP [1]: 0.052
- Change GSH [1]: 0.014
- Change HGA [1]: 0.4
- Change HVA [1]: 0.1
- Change HX [1]: −0.0057
- Change KYN [1]: 0.045
- Change LD [1]: 0.12
- Change MEL [1]: 0.49
- Change METH [1]: 0.2
- Change MHPG [1]: −0.21
- Change NA-5-HT [1]: 0.041
- Change TRP [1]: 0.07
- Change TRPOL [1]: 0.061
- Change TYR [1]: 0.13
- Change UA [1]: −0.058
- Change VMA [1]: −0.015
- Change XAN [1]: −0.16
- Change XANTH [1]: 0.047
- Change 3-OHKY [2]: -0.02
- Change 3-OMD [2]: -0.18
- Change 4-HBAC [2]: 0.49
- Change 4-HPAC [2]: 0.47
- Change 4-HPLA [2]: 0.18
- Change 5-HIAA [2]: -0.14
- Change 5-HT [2]: -0.79
- Change 5-HTP [2]: -0.06
- Change 5-MTPOL [2]: 0.15
- Change 7-MXAN [2]: -0.51
- Change ATOCO [2]: 0.4
- Change CYS [2]: 0.0024
- Change DIOHMAL [2]: 0.2
- Change DOPAC [2]: -0.048
- Change DTOCO [2]: 0.75
- Change GR [2]: 0.17
- Change GRMP [2]: -0.0083
- Change GSH [2]: -0.02
- Change HGA [2]: 0.19
- Change HVA [2]: 0.13
- Change HX [2]: -0.075
- Change KYN [2]: 0.052
- Change LD [2]: 0.13
- Change MEL [2]: 0.41
- Change METH [2]: 0.0032
- Change MHPG [2]: -0.33
- Change NA-5-HT [2]: -0.022
- Change TRP [2]: 0.044
- Change TRPOL [2]: 0.082
- Change TYR [2]: -0.027
- Change UA [2]: -0.048
- Change VMA [2]: 0.1
- Change XAN [2]: -0.21
- Change XANTH [2]: 0.033
- Change 3-OHKY [3]: −0.074
- Change 3-OMD [3]: −0.12
- Change 4-HBAC [3]: −0.085
- Change 4-HPAC [3]: 0.29
- Change 4-HPLA [3]: 0.1
- Change 5-HIAA [3]: −0.17
- Change 5-HT [3]: −0.75
- Change 5-HTP [3]: −0.11
- Change 5-MTPOL [3]: 0.041
- Change 7-MXAN [3]: −0.099
- Change ATOCO [3]: 0.21
- Change CYS [3]: −0.034
- Change DIOHMAL [3]: 0.18
- Change DOPAC [3]: −0.13
- Change DTOCO [3]: 0.3
- Change GR [3]: −0.23
- Change GRMP [3]: −0.011
- Change GSH [3]: −0.013
- Change HGA [3]: 0.28
- Change HVA [3]: 0.053
- Change HX [3]: −0.07
- Change KYN [3]: −0.045
- Change LD [3]: 0.081
- Change MEL [3]: 0.34
- Change METH [3]: 0.097
- Change MHPG [3]: −0.17
- Change NA-5-HT [3]: 0.0079
- Change TRP [3]: 0.0036
- Change TRPOL [3]: 0.033
- Change TYR [3]: 0.083
- Change UA [3]: −0.077
- Change VMA [3]: 0.11
- Change XAN [3]: −0.19
- Change XANTH [3]: 0.082
- Change in ratio 3-OHKY/5-HT, Estimate (Nonresponder to sertraline): 0.69
- Change in ratio 3-OHKY/5-HTP, Estimate (Nonresponder to sertraline): −0.099
- Change in ratio 3-OHKY/5-MTPOL, Estimate (Nonresponder to sertraline): −0.035
- Change in ratio 3-OHKY/MEL, Estimate (Nonresponder to sertraline): −0.11
- Change in ratio 3-OHKY/NA-5-HT, Estimate (Nonresponder to sertraline): 0.0038
- Change in ratio 3-OHKY/TRP, Estimate (Nonresponder to sertraline): −0.04
- Change in ratio KYN/5-HT, Estimate (Nonresponder to sertraline): 0.72
- Change in ratio KYN/5-HTP, Estimate (Nonresponder to sertraline): −0.076
- Change in ratio KYN/5-MTPOL, Estimate (Nonresponder to sertraline): −0.012
- Change in ratio KYN/MEL, Estimate (Nonresponder to sertraline): −0.085
- Change in ratio KYN/NA-5-HT, Estimate (Nonresponder to sertraline): 0.027
- Change in ratio KYN/TRP, Estimate (Nonresponder to sertraline): −0.017
- Change in ratio 3-OHKY/5-HT, Estimate (Responder to sertraline): 0.97
- Change in ratio 3-OHKY/5-HTP, Estimate (Responder to sertraline): 0.025
- Change in ratio 3-OHKY/5-MTPOL, Estimate (Responder to sertraline): −0.043
- Change in ratio 3-OHKY/MEL, Estimate (Responder to sertraline): −0.27
- Change in ratio 3-OHKY/NA-5-HT, Estimate (Responder to sertraline): −0.00032
- Change in ratio 3-OHKY/TRP, Estimate (Responder to sertraline): 0.013
- Change in ratio KYN/5-HT, Estimate (Responder to sertraline): 0.95
- Change in ratio KYN/5-HTP, Estimate (Responder to sertraline): 0.0057
- Change in ratio KYN/5-MTPOL, Estimate (Responder to sertraline): −0.062
- Change in ratio KYN/MEL, Estimate (Responder to sertraline): −0.28
- Change in ratio KYN/NA-5-HT, Estimate (Responder to sertraline): −0.019
- Change in ratio KYN/TRP, Estimate (Responder to sertraline): −0.006
